Experimental findings from US20130196984A1, “3-AMINO-5-PHENYL-56-DIHYDRO-2H-[1,4]OXAZINES” (Siena Biotech S.p.A., priority 2009, published 2013) are described below.

Counter-ions that a name gives are not always drawn.

For assay [1], the target named is T1, BACE1 (Homo sapiens, UniProt P56817). The assay is described as follows: Cellular Abeta-lowering assay. The class given is cell-based. More on the design: endogenous in cells; host or cells: HEK293 stably transfected with human APP695 wt. As to conditions: HEK293 cells stably transfected with human APP wt (APP695), Aβ40 ELISA of supernatant after 18-20 hrs. On the technique in general: In an ELISA, binding on a coated surface is turned into a signal by an enzyme label.
T1 sequence (P56817 46-501): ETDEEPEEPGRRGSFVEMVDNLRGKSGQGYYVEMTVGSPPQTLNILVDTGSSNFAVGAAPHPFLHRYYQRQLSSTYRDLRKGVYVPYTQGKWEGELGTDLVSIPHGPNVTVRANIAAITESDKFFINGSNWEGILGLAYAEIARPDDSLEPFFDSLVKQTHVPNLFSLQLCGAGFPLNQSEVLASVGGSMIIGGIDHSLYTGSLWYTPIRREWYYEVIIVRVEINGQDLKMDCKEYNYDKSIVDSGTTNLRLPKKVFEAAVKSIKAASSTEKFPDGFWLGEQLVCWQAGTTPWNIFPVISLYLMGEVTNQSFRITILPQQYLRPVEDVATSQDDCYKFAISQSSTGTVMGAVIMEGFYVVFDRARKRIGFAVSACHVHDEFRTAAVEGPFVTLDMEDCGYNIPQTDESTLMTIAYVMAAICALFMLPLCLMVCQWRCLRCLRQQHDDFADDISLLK

Assay [2] concerns the target T1, BACE1. The assay can be described thus: Assay A: binding studies using SPR based methods, immobilised BACE1.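 Also: KD from a 1:1 kinetic fit (koff/kon) of real-time association and dissociation curves, or for fast binders from end-of-association equilibrium responses plotted against log concentration.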 More on the design: 6his-tagged full length BACE 1 expressed in SF9 cells; 6His; made in house; host or cells: SF9 insect cells. As to conditions: CM5 chip, immobilised 6his-tagged full length BACE 1, acetate buffer pH 4.6, 4% DMSO. (SPR reads the build-up and loss of mass on a sensor chip optically.)

Assay [3] has as its target T2, BACE2 (Rattus norvegicus, UniProt Q6IE75).
T2 construct: endogenous cellular BACE2 in the Ins1e rat cell line; endogenous in cells; host or cells: INS-TMEM27 (INS1e-derived rat cell line with doxycycline-inducible full-length hTMEM27)
T2 sequence (Q6IE75 63-514): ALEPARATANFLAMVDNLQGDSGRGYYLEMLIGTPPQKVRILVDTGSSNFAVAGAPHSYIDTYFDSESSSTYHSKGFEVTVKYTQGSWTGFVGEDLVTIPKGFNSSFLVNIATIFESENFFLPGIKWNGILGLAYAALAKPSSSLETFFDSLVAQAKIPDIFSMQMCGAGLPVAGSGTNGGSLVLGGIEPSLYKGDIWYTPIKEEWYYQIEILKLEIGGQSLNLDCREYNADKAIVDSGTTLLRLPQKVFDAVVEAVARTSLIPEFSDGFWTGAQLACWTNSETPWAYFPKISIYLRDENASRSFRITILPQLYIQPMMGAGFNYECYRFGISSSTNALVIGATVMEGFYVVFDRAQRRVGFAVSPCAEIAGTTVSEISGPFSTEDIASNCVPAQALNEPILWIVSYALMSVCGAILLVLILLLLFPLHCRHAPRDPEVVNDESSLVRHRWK
The assay can be described thus: Assay for BACE inhibition by measuring cellular TMEM27 cleavage.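 Also: inhibitor added 2 h before doxycycline-induced hTMEM27 expression, supernatant collected after further 46 h, endogenous BACE2 activity read as reduced TMEM27 shedding.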 The note with it: INS-TMEM27 (INS1e-derived) cells, ELISA of shed human TMEM27 in supernatant. Format: cell-based.

Assay [4] addresses T3, BACE2 (Homo sapiens, UniProt Q9Y5Z0).
T3 construct: BACE2 enzyme ectodomain (derived from plasmid “pET17b-T7-hu proBACE2”); T7 (N); made in house
T3 sequence (Q9Y5Z0 63-473 limits assumed): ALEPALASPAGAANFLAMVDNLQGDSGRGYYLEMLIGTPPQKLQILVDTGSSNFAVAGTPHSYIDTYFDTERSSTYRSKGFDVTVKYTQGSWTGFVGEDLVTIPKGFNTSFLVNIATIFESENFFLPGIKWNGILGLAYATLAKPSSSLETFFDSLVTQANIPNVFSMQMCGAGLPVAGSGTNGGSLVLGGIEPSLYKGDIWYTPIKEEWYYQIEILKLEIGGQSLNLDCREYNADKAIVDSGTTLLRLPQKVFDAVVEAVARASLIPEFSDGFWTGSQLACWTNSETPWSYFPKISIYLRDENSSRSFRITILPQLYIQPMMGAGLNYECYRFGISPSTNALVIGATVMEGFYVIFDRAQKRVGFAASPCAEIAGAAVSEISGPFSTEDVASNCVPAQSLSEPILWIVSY
The assay is described as follows: Assay A: binding studies using SPR based methods, immobilised BACE2. As to conditions: CM5 chip, immobilised BACE2 enzyme ectodomain, acetate buffer pH 4.6, 4% DMSO.

One may read the IC50 as the concentration at which inhibition is half-maximal. A lower IC50 goes with inhibition by little substance. The term Kd denotes the concentration at which binding is half-saturated. `CC1(C)OCC(N)=N[C@]1(C)c1cc(NC(=O)c2ccc(Cl)cn2)ccc1F` [Example 49, 5-chloro-pyridine-2-carboxylic acid [3-((R)-5-amino-2,2,3-trimethyl-3,6-dihydro-2H-[1,4]oxazin-3-yl)-4-fluoro-phenyl]-amide]: the figures for the IC50 at BACE1 [1] and against BACE2 [3] were 4 nM and 66 nM, respectively. In addition, the results for the Kd on BACE1 [2] and at BACE2 [4] were 15 nM and 22 nM, respectively.

Take `CC(=O)Nc1ccc(F)c([C@]2(C)COCC(N)=N2)c1` [Example 93, N-[3-((R)-5-amino-3-methyl-3,6-dihydro-2H-[1,4]oxazin-3-yl)-4-fluoro-phenyl]-acetamide formate]: the figures for the IC50 on BACE1 [1] and at BACE2 [3] were 6820 nM and 3390 nM, respectively. The Kd at BACE1 [2] is above 10000 nM; on BACE2 [4] it was 3850 nM.

For `Cc1nc(C(=O)Nc2ccc(F)c([C@]3(C)COCC(N)=N3)c2)co1` [Example 39, 2-methyl-oxazole-4-carboxylic acid [3-((R)-5-amino-3-methyl-3,6-dihydro-2H-[1,4]oxazin-3-yl)-4-fluoro-phenyl]-amide], the IC50 at BACE1 [1] was 28 nM; against BACE2 [3], 130 nM. Further, the results for the Kd on BACE1 [2] and at BACE2 [4] were 45 nM and 8 nM, respectively.

On to `CC1(C)OC[C@@](C)(c2cccc(NC(=O)c3ccc(Cl)cn3)c2)N=C1N` [Example 51, 5-chloro-pyridine-2-carboxylic acid [3-((R)-5-amino-3,6,6-trimethyl-3,6-dihydro-2H-[1,4]oxazin-3-yl)-phenyl]-amide], for which the IC50 against BACE1 [1] is 14 nM; on BACE2 [3] it was 5 nM. Moreover, the dissociation constant Kd on BACE1 [2] was 22 nM; at BACE2 [4] it was 2 nM.

On to `CC1(c2cc(NC(=O)c3cc(-c4ccco4)on3)ccc2F)COCC(N)=N1` (racemic) [Example 75, 5-Furan-2-yl-isoxazole-3-carboxylic acid [3-((RS)-5-amino-3-methyl-3,6-dihydro-2H-[1,4]oxazin-3-yl)-4-fluoro-phenyl]-amide], for which the IC50 against BACE1 [1] was 110 nM; at BACE2 [3] it was above 10000 nM. The Kd at BACE1 [2] was 261 nM; on BACE2 [4], 2150 nM.

`Cc1cc(C(=O)Nc2cccc(C3(C)COCC(N)=N3)c2)c(C)s1` (racemic) [Example 9, (RS)-2,5-dimethyl-thiophene-3-carboxylic acid [3-(5-amino-3-methyl-3,6-dihydro-2H-[1,4]oxazin-3-yl)-phenyl]-amide]: the IC50 on BACE1 [1] is 58 nM; on BACE2 [3], 43 nM. Also, the dissociation constant (Kd) on BACE1 [2] was 717 nM; at BACE2 [4], 63 nM.

As to `CC1(c2cccc(NC(=O)c3ncc(Cl)cc3Cl)c2)COCC(N)=N1` (racemic) [Example 2, (RS)-3,5-dichloro-pyridine-2-carboxylic acid [3-(5-amino-3-methyl-3,6-dihydro-2H-[1,4]oxazin-3-yl)-phenyl]-amide], the IC50 against BACE1 [1] was found to be 16 nM; against BACE2 [3], 48 nM. Also, the dissociation constant (Kd) amounted to 50 nM at BACE1 [2] and 9 nM at BACE2 [4].

For `C[C@@]1(c2cc(NC(=O)c3ncc(Cl)cn3)ccc2F)COCC(N)=N1` [Example 35, 5-chloro-pyrimidine-2-carboxylic acid [3-((R)-5-amino-3-methyl-3,6-dihydro-2H-[1,4]oxazin-3-yl)-4-fluoro-phenyl]-amide], the IC50 against BACE1 [1] turned out to be 15 nM; on BACE2 [3], 16 nM. The Kd on BACE1 [2] stood at 28 nM; on BACE2 [4] it was 4 nM.

As for `C[C@@]1(c2cc(NC(=O)c3ccn(C(F)F)n3)ccc2F)COCC(N)=N1` [Example 40, 1-difluoromethyl-1H-pyrazole-3-carboxylic acid [3-((R)-5-amino-3-methyl-3,6-dihydro-2H-[1,4]oxazin-3-yl)-4-fluoro-phenyl]-amide], the results for the IC50 at BACE1 [1] and at BACE2 [3] were 13 nM and 2 nM, respectively. The Kd at BACE1 [2] stood at 15 nM; at BACE2 [4] it was 2 nM.

Take `C[C@@]1(c2cc(NC(=O)C3CC3(F)F)ccc2F)COCC(N)=N1` (mixture of isomers) [Example 53, (RS)-2,2-difluoro-cyclopropanecarboxylic acid [3-((R)-5-amino-3-methyl-3,6-dihydro-2H-[1,4]oxazin-3-yl)-4-fluoro-phenyl]-amide]: the IC50 at BACE1 [1] was found to be 620 nM; against BACE2 [3], 910 nM. Moreover, the dissociation constant Kd turned out to be 3950 nM at BACE1 [2] and 1220 nM at BACE2 [4].

Consider `C[C@@]1(c2cc(NC(=O)c3ccc(OC(F)F)cn3)ccc2F)COCC(N)=N1` [Example 73, 5-difluoromethoxy-pyridine-2-carboxylic acid [3-((R)-5-amino-3-methyl-3,6-dihydro-2H-[1,4]oxazin-3-yl)-4-fluoro-phenyl]-amide hydrochloride], for which the IC50 turned out to be 4 nM on BACE1 [1] and 105 nM against BACE2 [3]. Besides, the results for the Kd on BACE1 [2] and at BACE2 [4] were 9 nM and 51 nM, respectively.

With `C[C@@]1(c2cc(NC(=O)c3ccc(Cl)cn3)ccc2F)CO[C@H](Cc2ccccc2)C(N)=N1` [Example 28, 5-Chloro-pyridine-2-carboxylic acid [3-((3R,6R)— and (3S,6)-5-amino-6-benzyl-3-methyl-3,6-dihydro-2H-[1,4]oxazin-3-yl)-4-fluoro-phenyl]-amide], the results for the half-maximal inhibitory concentration (IC50) against BACE1 [1] and at BACE2 [3] were 19 nM and 58 nM, respectively. Further, the results for the Kd on BACE1 [2] and on BACE2 [4] were 71 nM and 11 nM, respectively.

In the case of `C[C@@]1(c2cc(NC(=O)c3sccc3Cl)ccc2F)COCC(N)=N1` [Example 46, 3-chloro-thiophene-2-carboxylic acid [3-((R)-5-amino-3-methyl-3,6-dihydro-2H-[1,4]oxazin-3-yl)-4-fluoro-phenyl]-amide], the IC50 at BACE1 [1] stood at 1350 nM; against BACE2 [3], 720 nM. Besides, the Kd was found to be 10800 nM on BACE1 [2] and 629 nM on BACE2 [4].

Turning to `COCC(=O)Nc1ccc(F)c([C@]2(C)COCC(N)=N2)c1` [Example 84, N-[3-((R)-5-amino-3-methyl-3,6-dihydro-2H-[1,4]oxazin-3-yl)-4-fluoro-phenyl]-2-methoxy-acetamide formate], the IC50 amounted to 140 nM against BACE1 [1] and 83 nM against BACE2 [3]. Besides, the Kd came to 261 nM at BACE1 [2] and 77 nM at BACE2 [4].

For `CC1(c2cccc(NC(=O)c3ccc(Cl)s3)c2)COCC(N)=N1` (racemic) [Example 8, (RS)-5-chloro-thiophene-2-carboxylic acid [3-(5-amino-3-methyl-3,6-dihydro-2H-[1,4]oxazin-3-yl)-phenyl]-amide], the results for the IC50 against BACE1 [1] and against BACE2 [3] were 327 nM and 360 nM, respectively. Moreover, the values for the Kd on BACE1 [2] and on BACE2 [4] were 1490 nM and 106 nM, respectively.

For `C[C@@]1(c2cc(NC(=O)c3ccc(Cl)cn3)ccc2F)CO[C@@H](Cc2ccccc2)C(N)=N1` (racemic) [Example 29, 5-Chloro-pyridine-2-carboxylic acid [3-((3R,6S)— and (3S,6R)-5-amino-6-benzyl-3-methyl-3,6-dihydro-2H-[1,4]oxazin-3-yl)-4-fluoro-phenyl]-amide], the IC50 at BACE1 [1] amounted to 50 nM; at BACE2 [3], 140 nM. Moreover, the figures for the dissociation constant Kd on BACE1 [2] and at BACE2 [4] were 58 nM and 6 nM, respectively.

On to `C[C@@]1(c2cc(NC(=O)c3ccc(F)cn3)ccc2F)COCC(N)=N1` [Example 99, 5-fluoro-pyridine-2-carboxylic acid [3-((R)-5-amino-3-methyl-3,6-dihydro-2H-[1,4]oxazin-3-yl)-4-fluoro-phenyl]-amide], for which the half-maximal inhibitory concentration (IC50) on BACE1 [1] was determined as 17 nM; at BACE2 [3] it was 3 nM. Further, the values for the Kd on BACE1 [2] and at BACE2 [4] were 46 nM and 8 nM, respectively.

Take `CC(C)C(=O)Nc1ccc(F)c([C@]2(C)COCC(N)=N2)c1` [Example 88, N-[3-((R)-5-amino-3-methyl-3,6-dihydro-2H-[1,4]oxazin-3-yl)-4-fluoro-phenyl]-isobutyramide formate]: the IC50 on BACE1 [1] stood at 2760 nM; on BACE2 [3], 560 nM. Also, the Kd at BACE1 [2] is above 10000 nM; on BACE2 [4], 3450 nM.
